# Experimental data as given in the supplement of paper PMC10949913.
# Columns and labels:
# Experiment in all cases: area under concentration-response curve (viability) (AUC (a.u.)); higher = less active
# Conditions in all cases: 48 h
# [1] = system: CU-ACC2
# Procedure, shortened: (§1)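 Three adrenocortical carcinoma cell lines in 1,536-well plates received 23 nL of each library compound at 11 concentrations and were read with CellTiter-Glo after 48 h, with 15 minutes at room temperature before measuring luminescence. Vehicle and empty-well controls served for per-plate normalisation. AC50 and area under the curve were extracted from fitted concentration-response curves, discarding all curve classes other than inhibitory or non-responding.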
# [2] = system: NCI-H295R
# Procedure, shortened: as §1
# [3] = system: CU-ACC1
# Procedure, shortened: as §1
smiles,measurement,setting,value
OCCn1cc(-c2cnc3nnn(Cc4ccc5ncccc5c4)c3n2)cn1,area under concentration-response curve,[1],600
same,area under concentration-response curve,[2],543
same,area under concentration-response curve,[3],497
CCN(C(=O)C/1=C(O)/C2=C(C=CC=C2Cl)N(C)C1=O)C3=CC=CC=C3,area under concentration-response curve,[1],566
same,area under concentration-response curve,[2],555
same,area under concentration-response curve,[3],489
CC(C)[C@H]1C(=O)N[C@@H](CCCN=C(N)N)C(=O)NCC(=O)N[C@@H](CC(=O)O)C(=O)N[C@H](Cc2ccccc2)C(=O)N1C,area under concentration-response curve,[1],624
same,area under concentration-response curve,[2],601
same,area under concentration-response curve,[3],443
CCN(CC)CCCC(C)Nc1c2ccc(Cl)cc2nc2ccc(OC)cc12.Cl.Cl.O.O (configuration not stated),area under concentration-response curve,[1],561
same,area under concentration-response curve,[2],556
same,area under concentration-response curve,[3],402
CC(C)(O)C(=O)Nc1ccc([N+](=O)[O-])c(C(F)(F)F)c1,area under concentration-response curve,[1],602
same,area under concentration-response curve,[2],537
same,area under concentration-response curve,[3],505
Nc1cc(COc2c(Cl)cc(C[C@H](N)C(=O)O)cc2Cl)c2oc(-c3ccccc3)nc2c1,area under concentration-response curve,[1],577
same,area under concentration-response curve,[2],588
same,area under concentration-response curve,[3],488
C[C@H](CCC(=O)O)[C@H]1CCC2C3C[C@H](O)[C@@H]4C[C@H](O)CC[C@]4(C)C3CC[C@@]21C (some centres not stated),area under concentration-response curve,[1],501
same,area under concentration-response curve,[2],470
same,area under concentration-response curve,[3],454
Cn1cc(-c2nc(N[C@@H]3CCCC[C@@H]3N)c(F)c3c2C(=O)NC3)cn1,area under concentration-response curve,[1],719
same,area under concentration-response curve,[2],660
same,area under concentration-response curve,[3],623
COC1=C(F)C=C\2C(=C1)\N=C/3NNC(=C3\N=C2C4=CC=CC=C4Cl)/C,area under concentration-response curve,[1],528
same,area under concentration-response curve,[2],552
same,area under concentration-response curve,[3],538
COCCOc1ccc(N2CCN(CCn3ncc4c3nc(N)n3nc(-c5ccco5)nc43)CC2)cc1,area under concentration-response curve,[1],606
same,area under concentration-response curve,[2],530
same,area under concentration-response curve,[3],552
CC(O)(C[S+](=O)([O-])c1ccc(F)cc1)C(=O)Nc1ccc(C#N)c(C(F)(F)F)c1 (configuration not stated),area under concentration-response curve,[1],482
same,area under concentration-response curve,[2],447
same,area under concentration-response curve,[3],454
CCCC1=NC(=C2[N]1NC(=N\C2=O)/C3=CC(=CC=C3OCC)[S+]([O-])(=O)N4CCN(CC)CC4)C,area under concentration-response curve,[1],573
same,area under concentration-response curve,[2],518
same,area under concentration-response curve,[3],462
Cc1cc(O)c2c(c1)C(=O)c1cc(O)cc(O)c1C2=O,area under concentration-response curve,[1],521
same,area under concentration-response curve,[2],498
same,area under concentration-response curve,[3],471
COc1cc2c(cc1-c1c(C)noc1C)ncc1[nH]c(=O)n([C@H](C)c3ccccn3)c12,area under concentration-response curve,[1],515
same,area under concentration-response curve,[2],459
same,area under concentration-response curve,[3],490
Cn1cnc(N)c2ncnc1-2,area under concentration-response curve,[1],467
same,area under concentration-response curve,[2],448
same,area under concentration-response curve,[3],438
C[S+](=O)([O-])Oc1ccc2c(NC(N)=O)c(C(=O)c3ccc(Cl)cc3Cl)oc2c1,area under concentration-response curve,[1],568
same,area under concentration-response curve,[2],532
same,area under concentration-response curve,[3],515
O=C(NC1CCOCC1)c1ccc(-c2cc(-c3c[nH]nc3-c3ccccn3)ccn2)cc1,area under concentration-response curve,[1],497
same,area under concentration-response curve,[2],453
same,area under concentration-response curve,[3],429
O=[N+]([O-])c1cncn1CCN1CCOCC1,area under concentration-response curve,[1],611
same,area under concentration-response curve,[2],563
same,area under concentration-response curve,[3],545
CC(=O)N1CCN(c2ccc(NC(=O)Cc3cnc(-c4ccnc(F)c4)c(C)c3)nc2)CC1,area under concentration-response curve,[1],643
same,area under concentration-response curve,[2],582
same,area under concentration-response curve,[3],550
CCn1nc(C2CCN(C(=O)CCO)CC2)nc1-c1cnc(N)c(-c2nnc(C(C)(C)C)o2)n1,area under concentration-response curve,[1],504
same,area under concentration-response curve,[2],507
same,area under concentration-response curve,[3],387
CCOC(=O)/C=C/[C@H](C[C@@H]1CCNC1=O)NC(=O)[C@@H](CC(=O)[C@@H](NC(=O)c1cc(C)on1)C(C)C)Cc1ccc(F)cc1,area under concentration-response curve,[1],523
same,area under concentration-response curve,[2],539
same,area under concentration-response curve,[3],530
CN1C(=O)\C(=C/C(=C1/NC2=C(F)C=C(I)C=C2)C(=O)NOCCO)C,area under concentration-response curve,[1],519
same,area under concentration-response curve,[2],550
same,area under concentration-response curve,[3],335
COc1ccc(-c2cc(=O)c3c(O)cc(O)cc3o2)cc1O,area under concentration-response curve,[1],447
same,area under concentration-response curve,[2],437
same,area under concentration-response curve,[3],452
N/C1=N/C(=O)C/2=C(NC[C@@H](CNC3=CC=C(C=C3)C(=O)N[C@@H](CCC([O-])=O)C([O-])=O)N2C=O)\N1,area under concentration-response curve,[1],552
same,area under concentration-response curve,[2],529
same,area under concentration-response curve,[3],494
CC(/C=C1\SC(=S)N(CC(=O)O)C1=O)=C\c1ccccc1,area under concentration-response curve,[1],594
same,area under concentration-response curve,[2],492
same,area under concentration-response curve,[3],494
CN1[C@@H]2CC(O)C[C@H]1[C@@H]1O[C@@H]12 (some centres not stated),area under concentration-response curve,[1],560
same,area under concentration-response curve,[2],496
same,area under concentration-response curve,[3],460
CN[C@H](CC(C)C)C(=O)N[C@H]1C(=O)N[C@@H](CC(N)=O)C(=O)N[C@H]2C(=O)N[C@H]3C(=O)N[C@H](C(=O)N[C@H](C(=O)O)c4cc(O)cc(O)c4-c4cc3ccc4O)[C@H](O)c3ccc(c(Cl)c3)Oc3cc2cc(c3O[C@@H]2O[C@H](CO)[C@@H](O)[C@H](O)[C@H]2O[C@H]2C[C@](C)(N)[C@H](O)[C@H](C)O2)Oc2ccc(cc2Cl)[C@H]1O,area under concentration-response curve,[1],676
same,area under concentration-response curve,[2],614
same,area under concentration-response curve,[3],589
CC(=O)Nc1nc(C)c(-c2ccc(Cl)c([S+](=O)([O-])NCCO)c2)s1,area under concentration-response curve,[1],566
same,area under concentration-response curve,[2],531
same,area under concentration-response curve,[3],385
C1Cc2[nH]nc(-c3nn[nH]n3)c2C1,area under concentration-response curve,[1],624
same,area under concentration-response curve,[2],514
same,area under concentration-response curve,[3],544
COC1=C(N2CCNC(C)C2)C(=CC3=C1N(\C=C(C(O)=O)/C3=O)C4CC4)F (configuration not stated),area under concentration-response curve,[1],609
same,area under concentration-response curve,[2],509
same,area under concentration-response curve,[3],543
Nc1nc(OC(c2ccc(-c3cccc(F)c3)cc2)C(F)(F)F)cc(-c2ccc(C[C@H](N)C(=O)O)cc2)n1 (some centres not stated),area under concentration-response curve,[1],519
same,area under concentration-response curve,[2],555
same,area under concentration-response curve,[3],546
CC(C)=CCC/C(C)=C/CC/C(C)=C/CSc1ccccc1C(=O)O,area under concentration-response curve,[1],598
same,area under concentration-response curve,[2],540
same,area under concentration-response curve,[3],527
C/C1=C/C[C@@H](/C(C)=C/c2csc(C)n2)OC(=O)C[C@H](O)C(C)(C)C(=O)[C@H](C)[C@@H](O)[C@@H](C)CCC1,area under concentration-response curve,[1],567
same,area under concentration-response curve,[2],426
same,area under concentration-response curve,[3],480
CC1CCN(c2cc(N3CCN(C)CC3)ccc2NC(=O)c2cc(C#N)c[nH]2)CC1,area under concentration-response curve,[1],600
same,area under concentration-response curve,[2],544
same,area under concentration-response curve,[3],542
